Reference: ChEMBL document CHEMBL1201861, “Genomics of Drug Sensitity in Cancer screening data, Wellcome Trust Sanger Institute”

Tests used:
Assay in all cases: cells
[1] = test system: MFH-ino; assay type: functional, cell-based, Homo sapiens; details: Homo sapiens, MFH-ino;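 further: growth inhibition of human MFH-ino cells, read out by a cell viability assay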
Description: SANGER: Inhibition of human MFH-ino cell growth in a cell viability assay.

[2] = test system: NCI-H2342; assay type: functional, cell-based; details: Homo sapiens;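 further: growth inhibition of the cancer cell line, determined with a cell viability assay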
Description: SANGER: Inhibition of human NCI-H2342 cell growth in a cell viability assay.

[3] = test system: SK-N-AS; assay type: functional, cell-based; details: Homo sapiens;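 further: growth inhibition of human SK-N-AS cells, measured with a cell viability assay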
Description: SANGER: Inhibition of human SK-N-AS cell growth in a cell viability assay.

[4] = test system: NCI-H1693; assay type: functional, cell-based; details: Homo sapiens;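 further: growth inhibition of the human cell line, read out with a cell viability assay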
Description: SANGER: Inhibition of human NCI-H1693 cell growth in a cell viability assay.

[5] = test system: U2OS; assay type: functional, cell-based, U-2-OS; details: Homo sapiens;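 further: growth inhibition of human U-2-OS cells, determined with a cell viability assay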
Description: SANGER: Inhibition of human U-2-OS cell growth in a cell viability assay.

[6] = test system: COLO-680N; assay type: functional, cell-based; details: Homo sapiens;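 further: cell viability assay used to measure inhibition of COLO-680N cell growth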
Description: SANGER: Inhibition of human COLO-680N cell growth in a cell viability assay.

[7] = test system: OVCAR-5; assay type: functional, cell-based; details: Homo sapiens;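 further: growth inhibition of human OVCAR-5 cells, read out with a cell viability assay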
Description: SANGER: Inhibition of human OVCAR-5 cell growth in a cell viability assay.

[8] = test system: ABC-1; assay type: functional, cell-based; details: Homo sapiens;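 further: growth inhibition of human ABC-1 cells, read out by a cell viability assay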
Description: SANGER: Inhibition of human ABC-1 cell growth in a cell viability assay.

[9] = test system: HuP-T3; assay type: functional, cell-based; details: Homo sapiens;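 further: HuP-T3 cell growth inhibition, read out with a cell viability assay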
Description: SANGER: Inhibition of human HuP-T3 cell growth in a cell viability assay.

[10] = test system: T84; assay type: functional, cell-based; details: Homo sapiens;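 further: growth inhibition measured with a cell viability readout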
Description: SANGER: Inhibition of human T84 cell growth in a cell viability assay.

[11] = test system: A673; assay type: functional, cell-based; details: Homo sapiens;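 further: growth inhibition of human A673 cells, read out through a cell viability assay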
Description: SANGER: Inhibition of human A673 cell growth in a cell viability assay.

[12] = test system: NCI-H441; assay type: functional, cell-based; details: Homo sapiens;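 further: growth inhibition of NCI-H441 cells, read out with a cell viability assay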
Description: SANGER: Inhibition of human NCI-H441 cell growth in a cell viability assay.

[13] = test system: MFE-280; assay type: functional, cell-based; details: Homo sapiens;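 further: growth inhibition of MFE-280 cells, determined with a cell viability readout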
Description: SANGER: Inhibition of human MFE-280 cell growth in a cell viability assay.

[14] = test system: SKG-IIIa; assay type: functional, cell-based; details: Homo sapiens;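 further: cell growth inhibition, read out with a cell viability assay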
Description: SANGER: Inhibition of human SKG-IIIa cell growth in a cell viability assay.

[15] = test system: COR-L23; assay type: functional, cell-based; details: Homo sapiens;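 further: cell viability assay measuring how strongly compounds suppress growth of COR-L23 cells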
Description: SANGER: Inhibition of human COR-L23 cell growth in a cell viability assay.

[16] = test system: SCC-4; assay type: functional, cell-based; details: Homo sapiens;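 further: growth inhibition of human SCC-4 cells, read out as cell viability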
Description: SANGER: Inhibition of human SCC-4 cell growth in a cell viability assay.

[17] = test system: U-251; assay type: functional, cell-based; details: Homo sapiens;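 further: growth inhibition of human U-251 cells, read out through a cell viability assay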
Description: SANGER: Inhibition of human U251 cell growth in a cell viability assay.

[18] = test system: SW837; assay type: functional, cell-based; details: Homo sapiens;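 further: growth inhibition of SW837 cells, determined with a cell viability assay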
Description: SANGER: Inhibition of human SW837 cell growth in a cell viability assay.

[19] = test system: ESS-1; assay type: functional, cell-based; details: Homo sapiens;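 further: growth inhibition of human ESS-1 cells, read out by a cell viability assay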
Description: SANGER: Inhibition of human ESS-1 cell growth in a cell viability assay.

[20] = test system: HuTu80; assay type: functional, cell-based, Homo sapiens, HUTU-80; details: Homo sapiens, HuTu80;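 further: growth inhibition of HuTu80 human cells, determined with a cell viability readout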
Description: SANGER: Inhibition of human HUTU-80 cell growth in a cell viability assay.

[21] = test system: HOP-92; assay type: functional, cell-based; details: Homo sapiens;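 further: cell viability readout, with IC50 reflecting inhibition of HOP-92 cell growth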
Description: SANGER: Inhibition of human HOP-92 cell growth in a cell viability assay.

[22] = test system: UMUC3; assay type: functional, cell-based; details: Homo sapiens;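 further: growth inhibition of human UM-UC-3 cells, read out with a cell viability assay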
Description: SANGER: Inhibition of human UM-UC-3 cell growth in a cell viability assay.

[23] = test system: GMS-10; assay type: functional, cell-based; details: Homo sapiens;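 further: growth inhibition of GMS-10 cells, read out as cell viability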
Description: SANGER: Inhibition of human GMS-10 cell growth in a cell viability assay.

[24] = test system: FaDu; assay type: functional, cell-based; details: Homo sapiens;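 further: cell viability readout of growth inhibition in FaDu cells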
Description: SANGER: Inhibition of human FADU cell growth in a cell viability assay.

[25] = test system: HOS; assay type: functional, cell-based; details: Homo sapiens;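 further: growth inhibition of human HOS cells, read out with a cell viability assay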
Description: SANGER: Inhibition of human HOS cell growth in a cell viability assay.

[26] = test system: FTC-133; assay type: functional, cell-based; details: Homo sapiens
[27] = test system: SCC-9; assay type: functional, cell-based; details: Homo sapiens;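 further: Read-out is a cell viability assay, with values giving inhibition of cell growth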
Description: SANGER: Inhibition of human SCC-9 cell growth in a cell viability assay.

[28] = test system: BXPC-3; assay type: functional, cell-based; details: Homo sapiens;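 further: growth inhibition of human BxPC-3 cells, read out by a cell viability assay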
Description: SANGER: Inhibition of human BxPC-3 cell growth in a cell viability assay.

[29] = test system: 5637; assay type: functional, cell-based; details: Homo sapiens
Description: SANGER: Inhibition of human 5637 cell growth in a cell viability assay.

[30] = test system: CWR22R; assay type: functional, cell-based; details: Homo sapiens, 22Rv1;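 further: growth inhibition of 22Rv1 cells, read out with a cell viability assay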
Description: SANGER: Inhibition of human 22RV1 cell growth in a cell viability assay.

[31] = test system: KYSE-510; assay type: functional, cell-based; details: Homo sapiens;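 further: cell viability readout used to measure how strongly growth of the cell line is suppressed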
Description: SANGER: Inhibition of human KYSE-510 cell growth in a cell viability assay.

[32] = test system: HuCCT-1; assay type: functional, cell-based, HuCCT1; details: Homo sapiens;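 further: growth inhibition of HuCCT-1 cells, read out by a cell viability assay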
Description: SANGER: Inhibition of human HuCCT1 cell growth in a cell viability assay.

[33] = test system: TYK-nu; assay type: functional, cell-based; details: Homo sapiens;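 further: growth inhibition of human TYK-nu cells, read out by a cell viability assay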
Description: SANGER: Inhibition of human TYK-nu cell growth in a cell viability assay.

[34] = test system: BEN; assay type: functional, cell-based; details: Homo sapiens;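 further: growth inhibition of the BEN cell line, read out with a cell viability assay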
Description: SANGER: Inhibition of human BEN cell growth in a cell viability assay.

[35] = test system: CP50-MEL-B; assay type: functional, cell-based; details: Homo sapiens;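 further: growth inhibition of the human cell line, measured with a cell viability read-out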
Description: SANGER: Inhibition of human CP50-MEL-B cell growth in a cell viability assay.

[36] = test system: KMOE-2; assay type: functional, cell-based, Homo sapiens; details: Homo sapiens, KMOE-2;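 further: growth inhibition of human KMOE-2 cells, read out with a cell viability assay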
Description: SANGER: Inhibition of human KMOE-2 cell growth in a cell viability assay.

[37] = test system: SW1088; assay type: functional, cell-based; details: Homo sapiens;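 further: growth inhibition of human SW1088 cells, read out by a cell viability assay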
Description: SANGER: Inhibition of human SW1088 cell growth in a cell viability assay.

[38] = test system: CAMA-1; assay type: functional, cell-based; details: Homo sapiens;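 further: growth inhibition of CAMA-1 cells, read out with a cell viability assay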
Description: SANGER: Inhibition of human CAMA-1 cell growth in a cell viability assay.

[39] = test system: HT-1080; assay type: functional, cell-based; details: Homo sapiens
Description: SANGER: Inhibition of human HT-1080 cell growth in a cell viability assay.

[40] = test system: CHL-1; assay type: functional, cell-based; details: Homo sapiens;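 further: cell growth inhibition, read out with a cell viability assay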
Description: SANGER: Inhibition of human CHL-1 cell growth in a cell viability assay.

[41] = test system: SK-MES-1; assay type: functional, cell-based; details: Homo sapiens;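 further: growth inhibition of human SK-MES-1 cells, read out with a cell viability assay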
Description: SANGER: Inhibition of human SK-MES-1 cell growth in a cell viability assay.

[42] = test system: NCI-H2452; assay type: functional, cell-based; details: Homo sapiens;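 further: growth inhibition of NCI-H2452 cells, read out with a cell viability assay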
Description: SANGER: Inhibition of human NCI-H2452 cell growth in a cell viability assay.

[43] = test system: NCI-H1623; assay type: functional, cell-based; details: Homo sapiens;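 further: cell viability assay used as the read-out for growth inhibition of NCI-H1623 cells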
Description: SANGER: Inhibition of human NCI-H1623 cell growth in a cell viability assay.

[44] = test system: BFTC-905; assay type: functional, cell-based; details: Homo sapiens
Description: SANGER: Inhibition of human BFTC-905 cell growth in a cell viability assay.

[45] = test system: SJRH30; assay type: functional, cell-based; details: Homo sapiens;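 further: growth inhibition of human SJRH30 cells, read out with a cell viability assay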
Description: SANGER: Inhibition of human SJRH30 cell growth in a cell viability assay.

`CN(NC(=O)CC(=O)NN(C)C(=S)c1ccccc1)C(=S)c1ccccc1` [ELESCLOMOL] was tested, and the IC50 [1] was > 200 nM, the IC50 [2] was 43.3 nM and the IC50 [3] was 30 nM. For the same compound, the IC50 [4] was 9.09 nM, the IC50 [5] was 19.7 nM and the IC50 [6] was 187 nM. It also gave an IC50 [7] of 1.83 nM, an IC50 [8] of 0.365 nM and an IC50 [9] of 55.8 nM. The IC50 [10] was > 200 nM, the IC50 [11] was 11.6 nM and the IC50 [12] was > 200 nM. For the same compound, the IC50 [13] was > 200 nM, the IC50 [14] was 49.8 nM and the IC50 [15] was > 200 nM. For the same compound, the IC50 [16] was > 200 nM, the IC50 [17] was 9.86 nM and the IC50 [18] was 107 nM. The IC50 [19] was 102 nM, the IC50 [20] was 0.791 nM and the IC50 [21] was 12.7 nM. The IC50 [22] was 7.06 nM, the IC50 [23] was 107 nM and the IC50 [24] was 5.66 nM. For the same compound, the IC50 [25] was 2.53 nM, the IC50 [26] was 27 nM and the IC50 [27] was 121 nM. The IC50 [28] was > 200 nM, the IC50 [29] was 35.5 nM and the IC50 [30] was 11.3 nM. It also gave an IC50 [31] of 110 nM, an IC50 [32] of 5.52 nM and an IC50 [33] of 12.4 nM. The IC50 [34] was 116 nM, the IC50 [35] was 8.63 nM and the IC50 [36] was 145 nM. The IC50 [37] was 82.1 nM, the IC50 [38] was > 200 nM and the IC50 [39] was 4.99 nM. The IC50 [40] was 2.81 nM, the IC50 [41] was > 200 nM and the IC50 [42] was 21.7 nM. For the same compound, the IC50 [43] was 179 nM, the IC50 [44] was 20.5 nM and the IC50 [45] was 100 nM.
For `Cc1ccc(-n2nc(C(C)(C)C)cc2NC(=O)Nc2ccc(OCCN3CCOCC3)c3ccccc23)cc1` [DORAMAPIMOD], the IC50 [1] was > 10000 nM, the IC50 [2] was > 10000 nM and the IC50 [3] was > 10000 nM. The IC50 [4] was > 10000 nM, the IC50 [5] was > 10000 nM and the IC50 [6] was > 10000 nM. For the same compound, the IC50 [7] was > 10000 nM, the IC50 [8] was > 10000 nM and the IC50 [9] was > 10000 nM. For the same compound, the IC50 [10] was > 10000 nM, the IC50 [11] was > 10000 nM and the IC50 [12] was > 10000 nM. The IC50 [13] was > 10000 nM, the IC50 [14] was > 10000 nM and the IC50 [15] was > 10000 nM. The IC50 [16] was > 10000 nM, the IC50 [17] was > 10000 nM and the IC50 [18] was > 10000 nM. For the same compound, the IC50 [19] was > 10000 nM, the IC50 [20] was > 10000 nM and the IC50 [21] was > 10000 nM. The IC50 [22] was > 10000 nM, the IC50 [23] was > 10000 nM and the IC50 [24] was > 10000 nM. The IC50 [25] was > 10000 nM, the IC50 [26] was > 10000 nM and the IC50 [27] was > 10000 nM. The IC50 [28] was > 10000 nM, the IC50 [29] was > 10000 nM and the IC50 [30] was > 10000 nM. The IC50 [31] was > 10000 nM, the IC50 [32] was > 10000 nM and the IC50 [33] was > 10000 nM. The IC50 [34] was > 10000 nM, the IC50 [35] was > 10000 nM and the IC50 [37] was > 10000 nM. The IC50 [38] was > 10000 nM, the IC50 [39] was > 10000 nM and the IC50 [40] was > 10000 nM. For the same compound, the IC50 [41] was > 10000 nM, the IC50 [42] was > 10000 nM and the IC50 [43] was > 10000 nM. The IC50 [44] was > 10000 nM and the IC50 [45] was > 10000 nM.
In the case of `NC(=O)c1ccc(N(C(N)=O)c2c(F)cccc2F)nc1-c1ccc(F)cc1F` [VX-702], the IC50 [1] is reported as > 2000 nM, the IC50 [2] is reported as > 2000 nM and the IC50 [3] is reported as > 2000 nM. For the same compound, the IC50 [4] was > 2000 nM, the IC50 [5] was > 2000 nM and the IC50 [6] was > 2000 nM. The IC50 [7] was > 2000 nM, the IC50 [8] was > 2000 nM and the IC50 [9] was > 2000 nM. The IC50 [10] was > 2000 nM, the IC50 [11] was > 2000 nM and the IC50 [12] was > 2000 nM. For the same compound, the IC50 [13] was > 2000 nM, the IC50 [14] was > 2000 nM and the IC50 [15] was > 2000 nM. For the same compound, the IC50 [16] was > 2000 nM, the IC50 [17] was > 2000 nM and the IC50 [18] was > 2000 nM. For the same compound, the IC50 [19] was > 2000 nM, the IC50 [20] was > 2000 nM and the IC50 [21] was > 2000 nM. For the same compound, the IC50 [22] was > 2000 nM, the IC50 [23] was > 2000 nM and the IC50 [24] was > 2000 nM. The IC50 [25] was > 2000 nM, the IC50 [26] was > 2000 nM and the IC50 [27] was > 2000 nM. For the same compound, the IC50 [28] was > 2000 nM, the IC50 [29] was > 2000 nM and the IC50 [30] was > 2000 nM. For the same compound, the IC50 [31] was > 2000 nM, the IC50 [32] was > 2000 nM and the IC50 [33] was > 2000 nM. The IC50 [34] was > 2000 nM, the IC50 [35] was > 2000 nM and the IC50 [36] was > 2000 nM. For the same compound, the IC50 [37] was > 2000 nM, the IC50 [38] was > 2000 nM and the IC50 [39] was > 2000 nM. For the same compound, the IC50 [40] was > 2000 nM, the IC50 [41] was > 2000 nM and the IC50 [42] was > 2000 nM. For the same compound, the IC50 [43] was > 2000 nM, the IC50 [44] was > 2000 nM and the IC50 [45] was > 2000 nM.
`CS(=O)(=O)N1CCN(Cc2cc3nc(-c4cccc5[nH]ncc45)nc(N4CCOCC4)c3s2)CC1` [PICTILISIB] was tested, and the IC50 [2] was > 4000 nM, the IC50 [3] was > 4000 nM and the IC50 [4] was > 4000 nM. The IC50 [5] was 3140 nM, the IC50 [6] was > 4000 nM and the IC50 [7] was 940 nM. For the same compound, the IC50 [8] was > 4000 nM, the IC50 [9] was > 4000 nM and the IC50 [10] was > 4000 nM. For the same compound, the IC50 [11] was > 4000 nM, the IC50 [12] was > 4000 nM and the IC50 [13] was 418 nM. For the same compound, the IC50 [14] was 2660 nM, the IC50 [15] was 3370 nM and the IC50 [16] was > 4000 nM. For the same compound, the IC50 [17] was > 4000 nM, the IC50 [18] was > 4000 nM and the IC50 [19] was > 4000 nM. The IC50 [21] was 2750 nM, the IC50 [22] was > 4000 nM and the IC50 [23] was > 4000 nM. For the same compound, the IC50 [24] was > 4000 nM, the IC50 [25] was 1980 nM and the IC50 [26] was > 4000 nM. For the same compound, the IC50 [27] was > 4000 nM, the IC50 [28] was > 4000 nM and the IC50 [29] was 2710 nM. For the same compound, the IC50 [30] was 2460 nM, the IC50 [31] was > 4000 nM and the IC50 [32] was > 4000 nM. The IC50 [33] was 1960 nM, the IC50 [34] was > 4000 nM and the IC50 [35] was > 4000 nM. For the same compound, the IC50 [37] was 2490 nM, the IC50 [38] was > 4000 nM and the IC50 [39] was 3090 nM. The IC50 [40] was 379 nM, the IC50 [41] was 2010 nM and the IC50 [42] was > 4000 nM. For the same compound, the IC50 [43] was 304 nM, the IC50 [44] was 1130 nM and the IC50 [45] was > 4000 nM.
